Reference: patent US10251394B2, “Molecules having pesticidal utility, and intermediates, compositions, and processes, related thereto” (Dow AgroSciences LLC, priority 2016, dated 2019)

How the values were obtained:
[1] = tested on: Beet Armyworm (Spodoptera exigua); assay: Bioassay on Beet Armyworm (BAW), 128-well diet tray assay; type: in vivo; conditions: Beet Armyworm, Table ABC, read-out: BAW rating
Method in brief: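 Second-instar larvae (one to five per well) placed on artificial diet surface-treated with 50 μg/cm^2 test molecule in 90:10 acetone-water, dried, eight wells per molecule. Held at 25° C, 14:10 light-dark, five to seven days; percent mortality recorded per well and averaged across the eight wells.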

[2] = tested on: Cabbage Looper (Trichoplusia ni); assay: Bioassay on Cabbage Looper (CL), 128-well diet tray assay; type: in vivo; conditions: Cabbage Looper, Table ABC, read-out: CL rating
Method in brief: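 Second-instar larvae, one to five per well, placed on artificial diet surface-treated with 50 μg/cm^2 compound in acetone-water, eight wells per compound. Held 5-7 days at 25° C, 14:10 light-dark; percent mortality per well averaged across wells.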

SMILES	pest or weed control at 50 µg/cm2 [1] [%]	pest or weed control at 50 µg/cm2 [2] [%]
C[C@@H](NC(=O)c1ccc(/C(F)=C/C(c2ccc(Cl)c(Cl)c2)C(F)(F)F)cc1Br)C(=O)NCC(F)(F)F (stereo partly drawn) [F123, 2-Bromo-4-((Z)-3-(3,4-dichlorophenyl)-1,4,4,4-tetrafluorobut-1-en-1-yl)-N—((R)-1-oxo-1-((2,2,2-trifluoroethyl)amino)propan-2-yl)benzamide]	50 to 100	50 to 100
O=C(CNC(=O)c1ccc(/C(F)=C/C(c2ccc(Cl)c(Cl)c2)C(F)(F)F)cc1Br)NCC(F)(F)F (stereo not shown) [F124, (Z)-2-Bromo-4-(3-(3,4-dichlorophenyl)-1,4,4,4-tetrafluorobut-1-en-1-yl)-N-(2-oxo-2-((2,2,2-trifluoroethyl)amino)ethyl)benzamide]	50 to 100	50 to 100
O=C(NC1(C(=O)NCC(F)(F)F)CC1)c1ccc(/C(F)=C/C(c2ccc(Cl)c(Cl)c2)C(F)(F)F)cc1Br (stereo not shown) [F125, (Z)-2-Bromo-4-(3-(3,4-dichlorophenyl)-1,4,4,4-tetrafluorobut-1-en-1-yl)-N-(1-((2,2,2-trifluoroethyl)carbamoyl)cyclopropyl)benzamide]	50 to 100	50 to 100
CC[C@@H](NC(=O)c1ccc(/C(F)=C/C(c2cc(Cl)c(Cl)c(Cl)c2)C(F)(F)F)cc1C(F)(F)F)C(N)=O (stereo partly drawn) [F126, N—((R)-1-Amino-1-oxobutan-2-yl)-4-((Z)-1,4,4,4-tetrafluoro-3-(3,4,5-trichlorophenyl)but-1-en-1-yl)-2-(trifluoromethyl)benzamide]	50 to 100	50 to 100
NC(=O)CNC(=O)c1ccc(/C(F)=C/C(c2cc(Cl)c(Cl)c(Cl)c2)C(F)(F)F)cc1C(F)(F)F (stereo not shown) [F127, (Z)—N-(2-Amino-2-oxoethyl)-4-(1,4,4,4-tetrafluoro-3-(3,4,5-trichlorophenyl)but-1-en-1-yl)-2-(trifluoromethyl)benzamide]	50 to 100	50 to 100
CC(F)(F)C(/C=C(\F)c1ccc(C(=O)NC2(C(=O)NCC(F)(F)F)CC2)c(C(F)(F)F)c1)c1ccc(Cl)c(Cl)c1 (stereo not shown) [F128, (Z)-4-(3-(3,4-Dichlorophenyl)-1,4,4-trifluoropent-1-en-1-yl)-N-(1-((2,2,2-trifluoroethyl)carbamoyl)cyclopropyl)-2-(trifluoromethyl)benzamide]	50 to 100	50 to 100
CC(F)(F)C(/C=C(\F)c1ccc(C(=O)NCC(=O)NCC(F)(F)F)c(C(F)(F)F)c1)c1ccc(Cl)c(Cl)c1 (stereo not shown) [F129, (Z)-4-(3-(3,4-Dichlorophenyl)-1,4,4-trifluoropent-1-en-1-yl)-N-(2-oxo-2-((2,2,2-trifluoroethyl)amino)ethyl)-2-(trifluoromethyl)benzamide]	50 to 100	50 to 100
C[C@@H](NC(=O)c1ccc(/C(F)=C/C(c2cc(Cl)c(Cl)c(Cl)c2)C(F)(F)F)cc1C(F)(F)F)C(=O)/C=C/CC(F)(F)F (stereo partly shown) [F140]	50 to 100	50 to 100
C=C(C)c1c(Cl)cc(C(/C=C(\F)c2ccc(C(=O)N[C@H](C)C(=O)NCC(F)(F)F)c(C(F)(F)F)c2)C(F)(F)F)cc1Cl (stereo partly drawn) [F148, 4-((Z)-3-(3,5-Dichloro-4-(prop-1-en-2-yl)phenyl)-1,4,4,4-tetrafluorobut-1-en-1-yl)-N—((R)-1-oxo-1-((2,2,2-trifluoroethyl)amino)propan-2-yl)-2-(trifluoromethyl)benzamide]	50 to 100	50 to 100
O=C(N[C@@H]1CON(CC(F)(F)F)C1=O)c1ccc(/C(F)=C/C(c2ccc(F)c(C(F)(F)F)c2)C(F)(F)F)cc1C(F)(F)F (stereo partly drawn) [F150, N—((R)-3-Oxo-2-(2,2,2-trifluoroethyl)isoxazolidin-4-yl)-4-((2)-1,4,4,4-tetrafluoro-3-(4-fluoro-3-(trifluoromethyl)phenyl)but-1-en-1-yl)-2-(trifluoromethyl)benzamide]	50 to 100	50 to 100
C[C@@H](NC(=O)c1ccc(/C(F)=C/C(c2cc(F)c(F)c(Cl)c2)C(F)(F)F)cc1C(F)(F)F)C(=O)NCC(F)(F)F (stereo partly drawn) [F154, 4-((Z)-3-(3-Chloro-4,5-difluorophenyl)-1,4,4,4-tetrafluorobut-1-en-1-yl)-N—((R)-1-oxo-1-((2,2,2-trifluoroethyl)amino)propan-2-yl)-2-(trifluoromethyl)benzamide]	50 to 100	50 to 100
COc1ccc(C(/C=C(\F)c2ccc(C(=O)NCC(=O)NCC(F)(F)F)c(C(F)(F)F)c2)C(F)(F)F)cc1Cl (stereo not shown) [F158, (Z)-4-(3-(3-Chloro-4-methoxyphenyl)-1,4,4,4-tetrafluorobut-1-en-1-yl)-N-(2-oxo-2-((2,2,2-trifluoroethyl)amino)ethyl)-2-(trifluoromethyl)benzamide]	50 to 100	50 to 100
C[C@@H](NC(=O)c1ccc(/C(F)=C/C(c2ccc(OCC(F)(F)F)c(Cl)c2)C(F)(F)F)cc1C(F)(F)F)C(=O)NCC(F)(F)F (stereo partly drawn) [F162, 4-((Z)-3-(3-Chloro-4-(2,2,2-trifluoroethoxy)phenyl)-1,4,4,4-tetrafluorobut-1-en-1-yl)-N—((R)-1-oxo-1-((2,2,2-trifluoroethyl)amino)propan-2-yl)-2-(trifluoromethyl)benzamide]	50 to 100	50 to 100
COC(=O)CC(NC(=O)c1ccc(/C(F)=C/C(c2cc(Cl)c(Cl)c(Cl)c2)C(F)(F)F)cc1C(F)(F)F)C(F)(F)F (stereo not shown) [F166, Methyl (Z)-4,4,4-trifluoro-3-(4-(1,4,4,4-tetrafluoro-3-(3,4,5-trichlorophenyl)but-1-en-1-yl)-2-(trifluoromethyl)benzamido)butanoate]	50 to 100	50 to 100
C[C@@H](NC(=O)c1ccc(/C(F)=C/C(c2cc(Cl)c(Cl)c(Cl)c2)C(F)(F)F)cc1C(F)(F)F)C(=O)NC1CC(F)(F)C1 (stereo partly drawn) [F168, N—((R)-1-((3,3-difluorocyclobutyl)amino)-1-oxopropan-2-yl)-4-((Z)-1,4,4,4-tetrafluoro-3-(3,4,5-trichlorophenyl)but-1-en-1-yl)-2-(trifluoromethyl)benzamide]	50 to 100	50 to 100
C[C@@H](NC(=O)c1ccc(/C(F)=C/C(c2cc(Cl)c(Cl)c(Cl)c2)C(F)(F)F)cc1C(F)(F)F)C(=O)N(O)CC(F)(F)F (stereo partly drawn) [F169, N—((R)-1-(Hydroxy(2,2,2-trifluoroethyl)amino)-1-oxopropan-2-yl)-4-((Z)-1,4,4,4-tetrafluoro-3-(3,4,5-trichlorophenyl)but-1-en-1-yl)-2-(trifluoromethyl)benzamide]	50 to 100	50 to 100
C[C@@H](NC(=O)c1ccc(/C(F)=C/C(c2ccc(Br)c(F)c2)C(F)(F)F)cc1C(F)(F)F)C(=O)NCC(F)(F)F (stereo partly drawn) [F170, 4-((Z)-3-(4-Bromo-3-fluorophenyl)-1,4,4,4-tetrafluorobut-1-en-1-yl)-N—((R)-1-oxo-1-((2,2,2-trifluoroethyl)amino)propan-2-yl)-2-(trifluoromethyl)benzamide]	50 to 100	50 to 100
O=C(N[C@@H]1CCN(CC(F)(F)F)C1=O)c1ccc(/C(F)=C/C(c2cc(Cl)c(Cl)c(Cl)c2)C(F)(F)F)cc1C(F)(F)F (stereo partly drawn) [F171, N—((R)-2-Oxo-1-(2,2,2-trifluoroethyl)pyrrolidin-3-yl)-4-((Z)-1,4,4,4-tetrafluoro-3-(3,4,5-trichlorophenyl)but-1-en-1-yl)-2-(trifluoromethyl)benzamide]	50 to 100	50 to 100
CNC(=O)[C@@H](C)NC(=O)c1ccc(/C(F)=C/C(c2cc(Cl)c(Cl)c(Cl)c2)C(F)(F)F)cc1C(F)(F)F (stereo partly drawn) [F173, N—((R)-1-(Methylamino)-1-oxopropan-2-yl)-4-((Z)-1,4,4,4-tetrafluoro-3-(3,4,5-trichlorophenyl)but-1-en-1-yl)-2-(trifluoromethyl)benzamide]	50 to 100	50 to 100
CCC(F)(F)C(/C=C(\F)c1ccc(C(=O)N[C@H](C)C(=O)NCC(F)(F)F)c(C(F)(F)F)c1)c1cc(Cl)c(Cl)c(Cl)c1 (stereo partly drawn) [F174, N—((R)-1-Oxo-1-((2,2,2-trifluoroethyl)amino)propan-2-yl)-4-((Z)-1,4,4-trifluoro-3-(3,4,5-trichlorophenyl)hex-1-en-1-yl)-2-(trifluoromethyl)benzamide]	50 to 100	50 to 100
C[C@@H](NC(=O)c1ccc(/C(F)=C/C(c2cc(Cl)cc(C(C)(F)F)c2)C(F)(F)F)cc1C(F)(F)F)C(=O)NCC(F)(F)F (stereo partly drawn) [F175, 4-((Z)-3-(3-Chloro-5-(1,1-difluoroethyl)phenyl)-1,4,4,4-tetrafluorobut-1-en-1-yl)-N—((R)-1-oxo-1-((2,2,2-trifluoroethyl)amino)propan-2-yl)-2-(trifluoromethyl)benzamide]	50 to 100	50 to 100
C[C@@H](NC(=O)c1ccc(/C(F)=C/C(c2cc(Cl)cc(CC(F)(F)F)c2)C(F)(F)F)cc1C(F)(F)F)C(=O)NCC(F)(F)F (stereo partly drawn) [F176, 4-((Z)-3-(3-Chloro-5-(2,2,2-trifluoroethyl)phenyl)-1,4,4,4-tetrafluorobut-1-en-1-yl)-N—((R)-1-oxo-1-((2,2,2-trifluoroethyl)amino)propan-2-yl)-2-(trifluoromethyl)benzamide]	50 to 100	50 to 100
O=C(N[C@@H]1CON(CC(F)(F)F)C1=O)c1ccc(/C(F)=C/C(c2cc(Cl)cc(CC(F)(F)F)c2)C(F)(F)F)cc1C(F)(F)F (stereo partly drawn) [F178, 4-((Z)-3-(3-Chloro-5-(2,2,2-trifluoroethyl)phenyl)-1,4,4,4-tetrafluorobut-1-en-1-yl)-N—((R)-3-oxo-2-(2,2,2-trifluoroethyl)isoxazolidin-4-yl)-2-(trifluoromethyl)benzamide]	50 to 100	50 to 100
